From US11420947B2, “(S)-n-hydroxy-2-(2-(4-methoxyphenyl)butanamido)thiazole-5-carboxamide and pharmaceutically acceptable salts thereof” (TRANSLATIONAL DRUG DEVELOPMENT, LLC, priority 2018, dated 2022)

How the values were obtained:
LK-2 = experiment: CellTiter-Glo cell viability assay; assay type: cell-based; details: Homo sapiens; LK-2, LUNG, Carcinoma, 72 hours
Procedure: (§1) Cell viability in the presence of varying concentrations of the above listed compounds at different time points was used to assess cytotoxicity and the effect of the compounds on cell proliferation.
(§2) Cell viability was measured by the CellTiter-Glo® cell viability assay from Promega (Madison, Wis.). The CellTiter-Glo® Luminescent Cell Viability Assay is a homogeneous method to determine the number of viable cells in culture based on quantitation of the ATP present, which signals the presence of metabolically active cells. Following treatment, CellTiter-Glo® is added to treatment wells and incubated at 37° C. luminescence values were measured at using a Molecular Devices Spectramax microplate reader
(§3) Cells were grown to 70% confluency, trypsinized, counted, and seeded in 96 well flat-bottom plates at a final concentration of 2.5×10^3-5×10^3 cells/well (Day 0). Cells were allowed to incubate in growth media for 24 hours. Treatment with the test agents or standard agents began on Day 1 and continued for 72 hours. At the 72-hour timepoint, treatment containing media was removed. Viable cell numbers are quantified by the CellTiter-Glo® cell viability assay as described above. Results from these studies were used to calculate an IC50 value (concentration of drug that inhibits cell growth by 50 percent of control) for each compound.
(§4) For single agent and combination studies, data from each experiment was collected and expressed as % Cell Growth using the following calculation: % Cell Growth=(ftest/fvehicle)×100
(§5) Where test is the fluorescence of the tested sample, and fvehicle is the fluorescence of the vehicle in which the drug is dissolved. Dose response graphs and IC50 values were generated using Prism 6 software (GraphPad) using the following equation: Y=(Top-Bottom)/(1+10^((logIC^50^-X)-HillSlope))

Panc-1 = experiment: CellTiter-Glo cell viability assay; assay type: cell-based; details: Homo sapiens; Panc-1, PANCREAS, Pancreatic, 72 hours
Procedure: as §1, §2, §3, §4, §5

SN12CCP = experiment: CellTiter-Glo cell viability assay; assay type: cell-based; details: SN12CCP, RENAL, RCC, 72 hours
Procedure: as §1, §2, §3, §4, §5

H1975 = experiment: CellTiter-Glo cell viability assay; assay type: cell-based; details: Homo sapiens, NCI-H1975; H1975, LUNG, NSCLC, 72 hours
Procedure: as §1, §2, §3, §4, §5

THP-1 = experiment: CellTiter-Glo cell viability assay; assay type: cell-based; details: Homo sapiens; THP-1, HEMATOPIETIC, AML, 72 hours
Procedure: as §1, §2, §3, §4, §5

MDA-MB-157 = experiment: CellTiter-Glo cell viability assay; assay type: cell-based; details: Homo sapiens; MDA-MB-157, BREAST, Medullary Carcinoma, 72 hours
Procedure: as §1, §2, §3, §4, §5

N87 = experiment: CellTiter-Glo cell viability assay; assay type: cell-based; details: N87, GASTRIC, Carcinoma, 72 hours
Procedure: as §1, §2, §3, §4, §5

4T1 = experiment: CellTiter-Glo cell viability assay; assay type: cell-based, Murine; details: Mus musculus; 4T1, BREAST, Murine Breast Tumor, 72 hours
Procedure: as §1, §2, §3, §4, §5

CT26 = experiment: CellTiter-Glo cell viability assay; assay type: cell-based, Murine; details: Mus musculus; CT26, MURINE COLON, Colon, 72 hours
Procedure: as §1, §2, §3, §4, §5

MC38 = experiment: CellTiter-Glo cell viability assay; assay type: cell-based, Murine; details: Mus musculus, MC-38; MC38, MURINE COLON, Colon, 72 hours
Procedure: as §1, §2, §3, §4, §5

L1210 = experiment: CellTiter-Glo cell viability assay; assay type: cell-based, Murine; details: Mus musculus; L1210, HEMATOPIETIC, Murine Leukemia, 72 hours
Procedure: as §1, §2, §3, §4, §5

GL261 = experiment: CellTiter-Glo cell viability assay; assay type: cell-based, Murine; details: Mus musculus; GL261, MURINE BRAIN, Murine Glioma, 72 hours
Procedure: as §1, §2, §3, §4, §5

A2780 = experiment: CellTiter-Glo cell viability assay; assay type: cell-based, Human; details: A2780, OVARIAN, Human Ovarian, 72 hours
Procedure: as §1, §2, §3, §4, §5

BIN-67 = experiment: CellTiter-Glo cell viability assay; assay type: cell-based, Human; details: BIN-67, OVARIAN, Human Small Cell Carcinoma of the Ovary, 72 hours
Procedure: as §1, §2, §3, §4, §5

SCCOHT-1 = experiment: CellTiter-Glo cell viability assay; assay type: cell-based, Human; details: SCCOHT-1, OVARIAN, Human Small Cell Carcinoma of the Ovary, 72 hours
Procedure: as §1, §2, §3, §4, §5

COV434 = experiment: CellTiter-Glo cell viability assay; assay type: cell-based, Human; details: COV434, OVARIAN, Human Ovarian Granulosa, 72 hours
Procedure: as §1, §2, §3, §4, §5

A2780cp = experiment: CellTiter-Glo cell viability assay; assay type: cell-based, Human; details: A2780C/P; A2780cp, OVARIAN, Platinum res-Human Ovarian, 72 hours
Procedure: as §1, §2, §3, §4, §5

IGROV-1 = experiment: CellTiter-Glo cell viability assay; assay type: cell-based, Human; details: IGROV-1, OVARIAN, Human Ovarian Adenocarcinoma, 72 hours
Procedure: as §1, §2, §3, §4, §5

OVCAR-8 = experiment: CellTiter-Glo cell viability assay; assay type: cell-based, Human; details: OVCAR-8, OVARIAN, Human Ovarian Carcinoma, 72 hours
Procedure: as §1, §2, §3, §4, §5

OVCAR-3 = experiment: CellTiter-Glo cell viability assay; assay type: cell-based, Human; details: OVCAR-3, OVARIAN, Human Ovarian Carcinoma, 72 hours
Procedure: as §1, §2, §3, §4, §5

SKOV-3 = experiment: CellTiter-Glo cell viability assay; assay type: cell-based, Human; details: SK-OV-3; SKOV-3, OVARIAN, Human Ovarian Carcinoma, 72 hours
Procedure: as §1, §2, §3, §4, §5

[1] = Pharmacokinetics studies in mice; assay type: in vivo; details: PO-5 mg/kg
From the text: Volume of distribution is one of the most important pharmacokinetic properties of a drug candidate and for an anticancer drug can result in increased drug distribution to the tumor.

For `CC[C@@H](C(=O)Nc1ncc(C(=O)NO)s1)c1ccc(OC)cc1` [#1b, (R)—N-hydroxy-2-(2-(4-methoxyphenyl)butanamido)thiazole-5-carboxamide], the IC50 (LK-2) was 398 nM, the IC50 (Panc-1) was 2670 nM and the IC50 (SN12CCP) was 410 nM. For the same compound, the IC50 (H1975) was 398 nM, the IC50 (THP-1) was 196 nM and the IC50 (MDA-MB-157) was 558 nM. For the same compound, the IC50 (N87) was 331 nM, the IC50 (4T1) was 185 nM and the IC50 (CT26) was 3.21 µM. The IC50 (MC38) was 493 nM, the IC50 (L1210) was 324 nM and the IC50 (GL261) was 1200 nM. It also gave an IC50 (A2780) of 219 nM, an IC50 (BIN-67) of 450 nM and an IC50 (SCCOHT-1) of 185 nM. The IC50 (COV434) was 339 nM, the IC50 (A2780cp) was 378 nM and the IC50 (IGROV-1) was 490 nM. It also gave an IC50 (OVCAR-8) of 113 nM, an IC50 (OVCAR-3) of 244 nM and an IC50 (SKOV-3) of 509 nM. The “AUC % Extrap” value [1] was 1.02%, the CI/Fobs [1] was 54.72 L/h/kg and the AUC(0-inf) ([1]; mouse, in vivo) was 91.4 ng·h/mL. It also gave an AUC(0-t) ([1]; mouse, in vivo) of 90.4 ng·h/mL, a Cmax ([1]; mouse, in vivo) of 20.9 ng/mL and a Tmax ([1]; mouse, in vivo) of 1 h. It also gave a bioavailability ([1]; mouse, in vivo) of 16.2%, a half-life ([1]; mouse, in vivo) of 216 min and a Vd/F ([1]; mouse, in vivo, read-out: Vz/Fobs) of 284 L/kg.
